Reference: PubChem BioAssay (NCI)
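1) Cells in 96-well plates. 2) Compound, 48 h, 5 concentrations. 3) Linear interpolation between surrounding doses. 4) Unreached endpoint = highest concentration. Abbreviation: GI50, concentration required for 50% inhibition of growth. TGI marks complete inhibition of growth.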

How the values were obtained:
Experiment in all cases: inhibition of tumour cell growth, NCI panel, 48 h
IGROV1 ovarian = system: IGROV1 ovarian
OVCAR-3 ovarian = system: OVCAR-3 ovarian
RXF 393 renal = system: RXF 393 renal
OVCAR-4 ovarian = system: OVCAR-4 ovarian
SW-620 colon = system: SW-620 colon
SNB-75 CNS = system: SNB-75 CNS
HCT-116 colon = system: HCT-116 colon
A549 NSCLC = system: A549 NSCLC
A498 renal = system: A498 renal
SR leukemia = system: SR leukemia
HT29 colon = system: HT29 colon
CAKI-1 renal = system: CAKI-1 renal
ACHN renal = system: ACHN renal
NCI/ADR-RES ovarian = system: NCI/ADR-RES ovarian
RPMI-8226 leukemia = system: RPMI-8226 leukemia
SF-268 CNS = system: SF-268 CNS
786-0 renal = system: 786-0 renal
HL-60(TB) leukemia = system: HL-60(TB) leukemia
SK-MEL-2 melanoma = system: SK-MEL-2 melanoma
EKVX NSCLC = system: EKVX NSCLC
HCT-15 colon = system: HCT-15 colon
NCI-H522 lung = system: NCI-H522 lung
KM12 colon = system: KM12 colon
COLO 205 colon = system: COLO 205 colon
UACC-257 melanoma = system: UACC-257 melanoma
HCC-2998 colon = system: HCC-2998 colon
DU-145 prostate = system: DU-145 prostate
UO-31 renal = system: UO-31 renal
BT-549 breast = system: BT-549 breast
MDA-MB-435 = system: MDA-MB-435
OVCAR-8 ovarian = system: OVCAR-8 ovarian
T-47D breast = system: T-47D breast
HS 578T breast = system: HS 578T breast
U251 CNS = system: U251 CNS
MDA-MB-231 breast = system: MDA-MB-231 breast
TK-10 renal = system: TK-10 renal
SK-OV-3 ovarian = system: SK-OV-3 ovarian
MCF7 breast = system: MCF7 breast
LOX IMVI melanoma = system: LOX IMVI melanoma
NCI-H226 lung = system: NCI-H226 lung
NCI-H23 lung = system: NCI-H23 lung
SNB-19 CNS = system: SNB-19 CNS
MALME-3M melanoma = system: MALME-3M melanoma
UACC-62 melanoma = system: UACC-62 melanoma
CCRF-CEM leukemia = system: CCRF-CEM leukemia
SN12C renal = system: SN12C renal
HOP-62 NSCLC = system: HOP-62 NSCLC
SF-295 CNS = system: SF-295 CNS
NCI-H460 lung = system: NCI-H460 lung
K-562 leukemia = system: K-562 leukemia
MOLT-4 leukemia = system: MOLT-4 leukemia
M14 melanoma = system: M14 melanoma
SK-MEL-28 melanoma = system: SK-MEL-28 melanoma
OVCAR-5 ovarian = system: OVCAR-5 ovarian
SF-539 CNS = system: SF-539 CNS
SK-MEL-5 melanoma = system: SK-MEL-5 melanoma

O=C(C1CCCCC1)[C@@H]1[C@]2(C(=O)NC3CCCCC32)[C@@H]2CCCN2[C@@]12C(=O)NC1CCC(Cl)CC12 (some centres not stated)
GI50 (IGROV1 ovarian): 53.2 µM | TGI (IGROV1 ovarian): 202 µM | GI50 (OVCAR-3 ovarian): 78.2 µM | TGI (OVCAR-3 ovarian): 210 µM | GI50 (RXF 393 renal): 113 µM | TGI (RXF 393 renal): 301 µM | GI50 (OVCAR-4 ovarian): 64.4 µM | TGI (OVCAR-4 ovarian): 218 µM | GI50 (SW-620 colon): 98.6 µM | TGI (SW-620 colon): 238 µM | GI50 (SNB-75 CNS): 58.1 µM | TGI (SNB-75 CNS): 256 µM | GI50 (HCT-116 colon): 71.6 µM | TGI (HCT-116 colon): 208 µM | GI50 (A549 NSCLC): 135 µM | TGI (A549 NSCLC): 379 µM | GI50 (A498 renal): 130 µM | TGI (A498 renal): 265 µM | GI50 (SR leukemia): 30.8 µM | TGI (SR leukemia): 124 µM | GI50 (HT29 colon): 64.4 µM | TGI (HT29 colon): 199 µM | GI50 (CAKI-1 renal): 80.8 µM | TGI (CAKI-1 renal): 225 µM | GI50 (ACHN renal): 103 µM | TGI (ACHN renal): 222 µM | GI50 (NCI/ADR-RES ovarian): 127 µM | TGI (NCI/ADR-RES ovarian): 310 µM | GI50 (RPMI-8226 leukemia): 32.6 µM | TGI (RPMI-8226 leukemia): 103 µM | GI50 (SF-268 CNS): 119 µM | TGI (SF-268 CNS): 288 µM | GI50 (786-0 renal): 151 µM | TGI (786-0 renal): 319 µM | GI50 (HL-60(TB) leukemia): 35.3 µM | TGI (HL-60(TB) leukemia): 176 µM | GI50 (SK-MEL-2 melanoma): 147 µM | TGI (SK-MEL-2 melanoma): 321 µM | GI50 (EKVX NSCLC): 69.9 µM | TGI (EKVX NSCLC): 217 µM | GI50 (HCT-15 colon): 56.5 µM | TGI (HCT-15 colon): 211 µM | GI50 (NCI-H522 lung): 120 µM | TGI (NCI-H522 lung): 281 µM | GI50 (KM12 colon): 130 µM | TGI (KM12 colon): 273 µM | GI50 (COLO 205 colon): 158 µM | TGI (COLO 205 colon): 323 µM | GI50 (UACC-257 melanoma): 135 µM | TGI (UACC-257 melanoma): 288 µM | GI50 (HCC-2998 colon): 135 µM | TGI (HCC-2998 colon): 293 µM | GI50 (DU-145 prostate): 128 µM | TGI (DU-145 prostate): 259 µM | GI50 (UO-31 renal): 54.1 µM | TGI (UO-31 renal): 226 µM | GI50 (BT-549 breast): 145 µM | TGI (BT-549 breast): 286 µM | GI50 (MDA-MB-435): 112 µM | TGI (MDA-MB-435): 245 µM | GI50 (OVCAR-8 ovarian): 162 µM | TGI (OVCAR-8 ovarian): 394 µM | GI50 (T-47D breast): 107 µM | TGI (T-47D breast): 279 µM | GI50 (HS 578T breast): 153 µM | TGI (HS 578T breast): 422 µM | GI50 (U251 CNS): 148 µM | TGI (U251 CNS): 316 µM | GI50 (MDA-MB-231 breast): 70.3 µM | TGI (MDA-MB-231 breast): 224 µM | GI50 (TK-10 renal): 266 µM | TGI (TK-10 renal): 448 µM | GI50 (SK-OV-3 ovarian): 145 µM | TGI (SK-OV-3 ovarian): 284 µM | GI50 (MCF7 breast): 41.8 µM | TGI (MCF7 breast): 185 µM | GI50 (LOX IMVI melanoma): 103 µM | TGI (LOX IMVI melanoma): 253 µM | GI50 (NCI-H226 lung): 179 µM | TGI (NCI-H226 lung): 411 µM | GI50 (NCI-H23 lung): 119 µM | TGI (NCI-H23 lung): 274 µM | GI50 (SNB-19 CNS): 148 µM | TGI (SNB-19 CNS): 299 µM | GI50 (MALME-3M melanoma): 132 µM | TGI (MALME-3M melanoma): 330 µM | GI50 (UACC-62 melanoma): 91.9 µM | TGI (UACC-62 melanoma): 215 µM | GI50 (CCRF-CEM leukemia): 32.3 µM | TGI (CCRF-CEM leukemia): 137 µM | GI50 (SN12C renal): 61.2 µM | TGI (SN12C renal): 197 µM | GI50 (HOP-62 NSCLC): 123 µM | TGI (HOP-62 NSCLC): 287 µM | GI50 (SF-295 CNS): 149 µM | TGI (SF-295 CNS): 299 µM | GI50 (NCI-H460 lung): 134 µM | TGI (NCI-H460 lung): 308 µM | GI50 (K-562 leukemia): 41.2 µM | TGI (K-562 leukemia): 220 µM | GI50 (MOLT-4 leukemia): 32.2 µM | TGI (MOLT-4 leukemia): 213 µM | GI50 (M14 melanoma): 116 µM | TGI (M14 melanoma): 253 µM | GI50 (SK-MEL-28 melanoma): 129 µM | TGI (SK-MEL-28 melanoma): 278 µM | GI50 (OVCAR-5 ovarian): 149 µM | TGI (OVCAR-5 ovarian): 284 µM | GI50 (SF-539 CNS): 121 µM | TGI (SF-539 CNS): 255 µM | GI50 (SK-MEL-5 melanoma): 110 µM | TGI (SK-MEL-5 melanoma): 234 µM
